Experimental findings from patent US20110218188A1, “SUBSTITUTED (PYRIDYL)-AZINYLAMINE DERIVATIVES AS FUNGICIDES” (priority 2008, published 2011) are described below.

Structures are written as SMILES. Marks after values point to notes of the source that are not given here.

A short description of one series: Measurement of logP values by HPLC on reversed phase columns (EEC directive 79/831 Annex V.A8). Format: physicochemical. To be noted: pH 2.3.
Consider `O=C(c1cccc(-c2ccnc(Nc3ccnc(Cl)c3)n2)n1)N1CCC1` [Example A35], for which the logP (as a rule, a log measure of how a compound divides between an organic and an aqueous phase) was 2.21^[b].

Still in this series, the particulars now being: pH 2.7.
On to `COc1cccc(Nc2ncnc(-c3ccnc(C(=O)N(C)CC4CC4)c3)n2)c1F` [Example B275], for which the log partition coefficient (logP) is reported as 2.7.

Compound `O=C(NC1CCCC1)c1cc(-c2ncnc(Nc3cccc(Cl)c3)n2)ccn1` [B71] gave a logP of 4.03.

The compound `Cc1ccc(Nc2ncnc(-c3ccnc(C(=O)NCCCN4CCCCCC4=O)c3)n2)cc1Cl` [B228] registered a logP of 3.44.

With `CCCCN(CC)C(=O)c1cc(-c2ncnc(Nc3ccc(OC)nc3)n2)ccn1` [Example C11], the logP stood at 2.78.

The compound `CN(CC1CCCO1)C(=O)c1cc(Nc2nccc(-c3ccnc(C(=O)N(C)CC4CCCO4)c3)n2)ccn1` (centres unmarked) [Example A16] returned a logP of 1.35.

Compound `COC(=O)NN=C(C)c1cc(-c2ncnc(Nc3cccc(Cl)c3)n2)ccn1` [B83] displayed a logP of 2.86.

In the case of `CCCN(C)C(=O)c1cc(-c2ncnc(Nc3cccc(Cl)c3)n2)ccn1` [Example B132], the logP is 3.06.

In turn, `C=CCN(CC=C)C(=O)c1cc(-c2ncnc(Nc3cccc(Cl)c3)n2)ccn1` [Example B143] gave a logP of 3.67.

`CC(=NO)c1cc(-c2ncnc(Nc3cccc(Cl)c3)n2)ccn1` (mixture of isomers) [Example B74]: the logP is given as 2.8.

`O=C(c1cc(Nc2nccc(-c3ccnc(C(=O)N4CC=CCC4)c3)n2)ccn1)N1CC=CCC1` [Example A3] displayed a logP of 1.6.

In turn, `O=C(NCCN1CCOCC1)c1cc(-c2ncnc(Nc3cccc(Cl)c3)n2)ccn1` [Example B105] gave a logP of 1.68.

`CCON=C(C)c1cc(-c2ncnc(Nc3cccc(Cl)c3)n2)ccn1` (mixture of isomers) [B31] gave a logP of 4.7.

The compound `O=C(c1cc(-c2ncnc(Nc3cccc(Cl)c3)n2)ccn1)N1CCC(O)C1` (centres unmarked) [B177] registered a logP of 2.07.

`CCN(CC)C(=O)c1cc(-c2ncnc(Nc3ccc(F)c(C(F)F)c3)n2)ccn1` [Example B353] displayed a logP of 2.86.

As for `CC(C)N(CCO)C(=O)c1cc(-c2ncnc(Nc3cccc(Cl)c3)n2)ccn1` [Example B180], the logP was 2.45.

For the compound `COC(=O)c1cc(-c2ncnc(Nc3ccc(C)c(Cl)c3)n2)ccn1` [B419], the logP was 3.17.

In turn, `O=C(NCCCN1CCCCCC1=O)c1cc(-c2ncnc(Nc3ccc(F)c(Cl)c3)n2)ccn1` [Example B194] showed a logP of 3.19.

The compound `CSc1cccc(Nc2ncnc(-c3ccnc(C(=O)NC4CC4)c3)n2)c1` [B213] yielded a logP of 3.15.

As to `CCN(C)C(=O)c1cc(-c2ccnc(Nc3ccnc(Cl)c3)n2)ccn1` [Example A17, 4-{2-[(2-chloropyridin-4-yl)amino]pyrimidin-4-yl}-N-ethyl-N-methylpyridine-2-carboxamide], the chromatographic logP (commonly lipophilicity estimated from chromatographic retention) was found to be 1.91.

Regarding `O=C(c1cc(-c2ncnc(Nc3cccc(Cl)c3)n2)ccn1)N1CCCCC1CO` (centres unmarked) [Example B165], the logP is 2.48.

The compound `NC(=S)c1cc(-c2ncnc(Nc3cccc(Cl)c3)n2)ccn1` [Example B119] returned a logP of 3.12.

As to `CCN(C)C(=S)c1cc(-c2ncnc(Nc3cccc(OC(F)(F)F)c3)n2)ccn1` [Example B271], the logP was found to be 3.57.

Compound `CCN(C)C(=S)c1cc(-c2ncnc(N(C(C)=O)c3cccc(F)c3)n2)ccn1` [Example B339] came in with a logP of 2.73.

For `CSc1cccc(Nc2ncnc(-c3ccnc(C(=O)NCC4CC4)c3)n2)c1` [B219], the logP was 3.64.

Consider `CCCN(C)C(=S)c1cc(-c2ncnc(Nc3cccc(OC)c3)n2)ccn1` [Example B283], for which the logP was found to be 3.15.

On to `CCCN(C)C(=O)c1cc(-c2ncnc(Nc3cccc(C(F)(F)F)c3)n2)ccn1` [Example B356], for which the logP is 3.25.

`CC(C)C(C)NC(=O)c1cc(-c2ncnc(Nc3cccc(Cl)c3)n2)ccn1` (centres unmarked) [B62] registered a logP of 4.3.

In turn, `CN(C)C(=O)c1cc(-c2ncnc(Nc3cccc(F)c3)n2)ccn1` [Example B5] gave a logP of 2.13.

`CCCN(C)C(=O)c1cc(Nc2nccc(-c3ccnc(C(=O)N(C)CCC)c3)n2)ccn1` [Example A14] yielded a logP of 1.59.

`CN(C)C(=O)c1cc(-c2ncnc(Nc3ccc(F)c(Cl)c3)n2)ccn1` [Example B205]: the logP is given as 2.47.

Consider `CCC(=NOC(C)C1CC1)c1cc(-c2ncnc(Nc3cccc(Cl)c3)n2)ccn1` (mixture of isomers) [B84], for which the logP is 6.24.

As for `CCCN(C)C(=O)c1cc(-c2ncnc(Nc3ccccc3)n2)ccn1` [Example B312], the logP is 2.55.

Take `CCN(CC)C(=S)c1cc(-c2ncnc(Nc3ccc(F)c(C(F)F)c3)n2)ccn1` [Example B327]: the logP stood at 3.37.

As for `CSc1cccc(Nc2ncnc(-c3ccnc(C(=O)NCCCN4CCCCCC4=O)c3)n2)c1` [B215], the logP stood at 3.02.

Turning to `CCN(C)C(=S)c1cc(-c2ncnc(Nc3ccc(F)c(Cl)c3)n2)ccn1` [Example B209], the logP was found to be 3.33.

For `CCCC(C)NC(=O)c1cc(-c2ncnc(Nc3cccc(Cl)c3)n2)ccn1` (centres unmarked) [Example B118], the logP was found to be 4.54.

Regarding `CCC(COC)NC(=O)c1cc(-c2ncnc(Nc3ccc(F)c(Cl)c3)n2)ccn1` (centres unmarked) [Example B195], the logP turned out to be 3.89.

Compound `CO/N=C(\C)c1cc(-c2ncnc(Nc3cccc(Cl)c3)n2)ccn1` [Example B27, N-(3-chlorophenyl)-4-{2-[(1E)-N-methoxyethanimidoyl]pyridin-4-yl}-1,3,5-triazin-2-amine] yielded a chromatographic logP of 4.23.

In the case of `O=C(c1cc(-c2ccnc(Nc3ccnc(Cl)c3)n2)ccn1)N1CCOCC1` [Example A22], the logP is recorded as 1.69.

Regarding `CON(C)C(=O)c1cc(-c2ncnc(Nc3cccc(C(F)F)c3)n2)ccn1` [B412], the logP is given as 2.34.

Compound `CN(CC1CC1)C(=O)c1cc(-c2ncnc(Nc3cccc(OC(F)(F)F)c3)n2)ccn1` [Example B265] gave a logP of 3.48.

`CCN(CC)CC(C)NC(=O)c1cc(-c2ncnc(Nc3cccc(Cl)c3)n2)ccn1` (centres unmarked) [Example B114] came in with a logP of 1.9.

`Cc1ccc(Nc2nccc(-c3ccnc(C(=O)N(C)C)c3)n2)s1` [Example A48] yielded a logP of 2.13.

On to `COC(=O)c1cc(-c2ncnc(Nc3ccc(Br)c(OC)c3)n2)ccn1` [B421], for which the logP was determined as 2.90.

With `CCN(C)C(=O)c1cc(-c2ncnc(Nc3ccc(OC)nc3)n2)ccn1` [Example C10], the logP is 1.82.

With `O=C(c1cc(-c2ncnc(Nc3cccc(Cl)c3)n2)ccn1)N1CCCC(CO)C1` (centres unmarked) [Example B145], the logP came out at 2.3.

Compound `CCN(CC)C(=O)c1cc(-c2ncnc(Nc3ccc(F)cc3)n2)ccn1` [Example B15] had a logP of 2.6.

The compound `CC(C)CN(C)C(=O)c1cc(-c2ncnc(Nc3cc(F)ccc3F)n2)ccn1` [Example B238] showed a logP of 2.9.

Take `O=C(NCCCCN1CCCC1=O)c1cc(-c2ncnc(Nc3cccc(Cl)c3)n2)ccn1` [B96]: the logP was determined as 2.73.

In the case of `CN(CCC#N)C(=O)c1cc(-c2ncnc(Nc3cccc(OC(F)F)c3)n2)ccn1` [Example B297], the logP is 2.37.

`CC#CCON=C(C)c1cc(-c2ncnc(Nc3cccc(Cl)c3)n2)ccn1` (mixture of isomers) [Example B36] yielded a logP of 4.41.

On to `CCCN(CCO)C(=O)c1cc(-c2ccnc(Nc3ccnc(Cl)c3)n2)ccn1` [Example A10], for which the logP is on record as 1.84.

For `CCN(CC)C(=O)c1cc(-c2ncnc(Nc3ccsc3)n2)ccn1` [Example C13], the logP is given as 2.44.

Consider `CN(C)C(=O)c1cc(-c2ncnc(Nc3cccc(OC(F)F)c3)n2)ccn1` [Example B300], for which the logP is recorded as 2.25. This logP and that of the compound before are within 0.2 log units of each other.

As to `CCN(C)C(=S)c1cc(-c2ncnc(Nc3ccc(F)c(C(F)F)c3)n2)ccn1` [Example B333], the logP was 3.04.

For `CC(C)CN(C)C(=O)c1cc(-c2ncnc(Nc3cccc(OC(F)F)c3)n2)ccn1` [Example B301], the logP is listed as 3.15.

The compound `CCCON=C(C)c1cc(-c2ncnc(Nc3cccc(Cl)c3)n2)ccn1` (mixture of isomers) [Example B43] registered a logP of 5.13.

`COCc1cccc(Nc2ncnc(-c3ccnc(C(=O)N(C)CCC#N)c3)n2)c1` [Example B239]: the logP stood at 1.94.

As for `CCN(C)C(=O)c1cc(-c2ncnc(Nc3ccc(Cl)c(C(F)F)c3)n2)ccn1` [Example B386], the logP is on record as 2.88.

As for `COc1cccc(Nc2ncnc(-c3ccnc(C(=O)N(C)CCC#N)c3)n2)c1` [Example B272], the logP was 2.11.

With `CC(C)CCNC(=O)c1cc(-c2ncnc(Nc3cccc(Cl)c3)n2)ccn1` [B61], the logP is 4.3.

The compound `COC(=O)c1cc(-c2ncnc(Nc3cccc(Cl)c3)n2)ccn1` [Example B25] returned a logP of 2.79.

Take `O=C(c1cc(-c2ccnc(Nc3ccnc(Cl)c3)n2)ccn1)N1CCCC1` [Example A7]: the logP came to 2.08.

The compound `CCN(C)C(=O)c1cc(-c2ncnc(Nc3ccc(C)c(Cl)c3)n2)ccn1` [Example B236] gave a logP of 3.02.

Take `CCCN(C)C(=O)c1cc(-c2ccnc(Nc3ccnc(Cl)c3)n2)ccn1` [Example A13]: the logP was found to be 2.2.

Turning to `O=C1CN(C(=O)c2cc(-c3ncnc(Nc4cccc(Cl)c4)n3)ccn2)CN1` [B168], the logP turned out to be 2.15.

As for `O=C(O)c1cc(-c2ncnc(Nc3cccc(Cl)c3)n2)ccn1` [B404], the logP is recorded as 2.11.

Regarding `O=CNCCCNC(=O)c1cc(-c2ncnc(Nc3cccc(Cl)c3)n2)ccn1` [B178], the logP is given as 2.26.

As to `CN(CC(F)F)C(=O)c1cc(-c2ncnc(Nc3cccc(C#N)c3)n2)ccn1` [Example B369], the logP was 2.45.

`CC1CCCN1C(=O)c1cc(-c2ncnc(Nc3cccc(Cl)c3)n2)ccn1` (centres unmarked) [Example B152] showed a logP of 3.23.

Turning to `CN(CC(F)F)C(=O)c1cc(-c2ncnc(Nc3ccsc3)n2)ccn1` [Example C21], the logP is 2.46.

As to `O=C(NC1CCC1)c1cc(-c2ncnc(Nc3cccc(Cl)c3)n2)ccn1` [Example B113], the logP stood at 3.89.

The same series, now with this note: pH 7.8.
`CCN(CC)C(=O)c1cc(-c2ncnc(Nc3ccc(OC)nc3)n2)ccn1` [Example C4]: the logP is 2.11^[c].
